Test results published in patent US20230167127A1, “COMPOUNDS AND THEIR USE IN THE TREATMENT OF BACTERIAL INFECTION” (Hoffmann-La Roche Inc., priority 2020, published 2023).
Read-outs that look alike come from different tables or passages of the source.

Tested on: Escherichia coli ATCC 25922
Experiment: 50% growth inhibitory concentration (IC50) determination, Iso-Sensitest broth dilution
Format: cell-based
Details: strain Escherichia coli ATCC 25922, 10-point broth dilution, optical density at 600 nm over 16 h, read-out: Escherichia coli growth inhibition IC50
How it was run: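 10-point twofold Iso-Sensitest broth dilution (e.g. 50 to 0.097 μM final) with DMSO stocks, incubated at 35±2° C. Growth followed by OD 600 nm every 20 min over 16 h; IC50 derived from growth inhibition during logarithmic phase.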

[1] = Escherichia coli, ATCC25922, 16 h

Compound	IC50 [1] [nM]	IC50 [nM]
Cc1nc2c(c3c1CC(CNCCC1CN(c4ccc5c(n4)NC(=O)CO5)C(=O)O1)C3)CCN2 (stereo not shown) [Example 423, 6-[5-[2-[(8-Methyl-5,7-diazatricyclo[7.3.0.0^2.6]dodeca-1,6,8-trien-11-yl)methylamino]ethyl]-2-oxo-1,3-oxazolidin-3-yl]-4H-pyrido[3,2-b][1,4]oxazin-3-one]	468	
Cc1nccc2c1CC(CN1CCC3(CC1)CN(c1cnc4c(n1)NC(=O)CO4)C(=O)O3)C2 (stereo not shown) [Example 374, 6-[8-[(1-methyl-6,7-dihydro-5H-cyclopenta[c]pyridin-6-yl)methyl]-2-oxo-1-oxa-3,8-diazaspiro[4.5]decan-3-yl]-4H-pyrazino[2,3-b][1,4]oxazin-3-one]	207	
O=C1COc2ccc(N3C(=O)OC4CC(NCCC5Cc6cccc(Cl)c6C5)CCC43)nc2N1 (racemic) [Example 32, 6-[rac-3a,7a-trans-6,7a-cis-6-[2-(4-chloro-2,3-dihydro-1H-inden-2-yl)ethylamino]-2-oxo-3a,4,5,6,7,7a-hexahydro-1,3-benzoxazol-3-yl]-4H-pyrido[3.2-b][1,4]oxazin-3-one]	710	
O=C1COc2ncc(N3CC(CCNCC4Cc5cc(OCCN6CCOC6=O)cc(F)c5C4)OC3=O)nc2N1 (stereo not shown) [Example 304, 6-[5-[2-[[4-fluoro-6-[2-(2-oxo-1,3-oxazolidin-3-yl)ethoxy]-2,3-dihydro-1H-inden-2-yl]methylamino]ethyl]-2-oxo-1,3-oxazolidin-3-yl]-4H-pyrazino[2,3-b][1,4]oxazin-3-one; formic acid]	446	
O=C1COc2ncc(N3CC4(CCN(CC5Cc6c(F)cc(OCc7cc[nH]n7)c(F)c6C5)CC4)OC3=O)nc2N1 (stereo not shown) [Example 396, 6-[8-[[4,7-difluoro-5-(1H-pyrazol-3-ylmethoxy)-2,3-dihydro-1H-inden-2-yl]methyl]-2-oxo-1-oxa-3,8-diazaspiro[4.5]decan-3-yl]-4H-pyrazino[2,3-b][1,4]oxazin-3-one]	161	
N#Cc1c(OC2CNC2)ccc2c1CC(CNCCC1CN(c3ccc4c(n3)NC(=O)CO4)C(=O)O1)C2 (stereo not shown) [Example 132, 5-(azetidin-3-yloxy)-2-[[2-[2-oxo-3-(3-oxo-4H-pyrido[3,2-b][1,4]oxazin-6-yl)-1,3-oxazolidin-5-yl]ethylamino]methyl]-2,3-dihydro-1H-indene-4-carbonitrile; formic acid]	145	
Cc1c(F)cnc2c1CC(CNCCC1CN(c3ccc4c(n3)NC(=O)CO4)C(=O)O1)C2 (stereo not shown) [Example 300, 6-[5-[2-[(3-fluoro-4-methyl-6,7-dihydro-5H-cyclopenta[b]pyridin-6-yl)methylamino]ethyl]-2-oxo-1,3-oxazolidin-3-yl]-4H-pyrido[3,2-b][1,4]oxazin-3-one]	156	
Cc1ncc(F)c2c1CC(NC1CC(C3CN(c4cnc5c(n4)NC(=O)CO5)C(=O)O3)C1)C2 (single isomer, unassigned; isomer b) [Example 329, 6-[5-[3-[(4-fluoro-1-methyl-6,7-dihydro-5H-cyclopenta[c]pyridin-6-yl)amino]cyclobutyl]-2-oxo-1,3-oxazolidin-3-yl]-4H-pyrazino[2,3-b][1,4]oxazin-3-one, Isomer B]		453

Now from value to compound:

IC50 [1] [nM]	IC50 [nM]	Compound
< 97.7		N#Cc1cccc2c1CC(CN1CCC3(CC1)CN(c1ccc4c(n1)NC(=O)CO4)C(=O)O3)C2 (stereo not shown) [Example 28, 2-[ [2-oxo-3-(3-oxo-4H-pyrido[3,2-b] [1,4]oxazin-6-yl)-1-oxa-3,8-diazaspiro[4.5]decan-8-yl]methyl]-2,3-dihydro-1H-indene-4-carbonitrile]
108		N#Cc1cccc2c1CC(CN1CCC3(CN(c4ccc5c(n4)NC(=O)CO5)C(=O)O3)C(CN)C1)C2 (racemic) [Example 249, 2-[[rac-5,6-trans-6-(Aminomethyl)-2-oxo-3-(3-oxo-4H-pyrido[3,2-b][1,4]oxazin-6-yl)-1-oxa-3,8-diazaspiro[4.5]decan-8-yl]methyl]-2,3-dihydro-1H-indene-4-carbonitrile; formic acid]
< 97.7		N#Cc1cc(OCC2(N)CC2)cc2c1CC(CCNCC1CN(c3ccc4c(n3)NC(=O)CO4)C(=O)O1)C2 (stereo not shown) [Example 196, 6-((1-aminocyclopropyl)methoxy)-2-(2-(((2-oxo-3-(3-oxo-3,4-dihydro-2H-pyrido[3,2-b][1,4]oxazin-6-yl)oxazolidin-5-yl)methyl)amino)ethyl)-2,3-dihydro-1H-indene-4-carbonitrile]
< 97.7		N[C@@H]1c2cccc(Cl)c2C[C@H]1CNCC[C@H]1CN(c2cnc3c(n2)NC(=O)CO3)C(=O)O1 [Example 402, 6-[(5S)-5-[2-[[(1S,2S)-1-amino-4-chloro-2,3-dihydro-1H-inden-2-yl]methylamino]ethyl]-2-oxo-1,3-oxazolidin-3-yl]-4H-pyrazino[2,3-b][1,4]oxazin-3-one]
139		O=C1COc2ccc(N3CC(CCNCCC4Cc5cccc(Cl)c5C4)OC3=O)nc2N1 (stereo not shown) [Example 20, 6-[5-[2-[2-(4-chloro-2,3-dihydro-1H-inden-2-yl)ethylamino]ethyl]-2-oxo-1,3-oxazolidin-3-yl]-4H-pyrido[3,2-b][1,4]oxazin-3-one; formic acid]
< 97.7		Cc1ncc(C#N)c2c1CC(CNCC[C@H]1CN(c3cnc4c(n3)NC(=O)CO4)C(=O)O1)C2 (stereo partly drawn) [Example 364, 1-methyl-6-[[2-[(5S)-2-oxo-3-(3-oxo-4H-pyrazino[2,3-b][1,4]oxazin-6-yl)-1,3-oxazolidin-5-yl]ethylamino]methyl]-6,7-dihydro-5H-cyclopenta[c]pyridine-4-carbonitrile]
< 97.7		Cc1ncc(F)c2c1CC(CNCCC1CN(c3cnc4c(n3)NC(=O)CO4)C(=O)O1)C2 (stereo not shown) [Example 51, 6-[5-[2-[(4-fluoro-1-methyl-6,7-dihydro-5H-cyclopenta[c]pyridin-6-yl)methylamino]ethyl]-2-oxo-1,3-oxazolidin-3-yl]-4H-pyrazino[2,3-b][1,4]oxazin-3-one]
< 97.7		CN(C)CCOc1cc(F)c2c(c1)CC(CNCCC1CN(c3ccc4c(n3)NC(=O)CO4)C(=O)O1)C2 (stereo not shown) [Example 271, 6-[5-[2-[[6-[2-(Dimethylamino)ethoxy]-4-fluoro-2,3-dihydro-1H-inden-2-yl]methylamino]ethyl]-2-oxo-1,3-oxazolidin-3-yl]-4H-pyrido[3,2-b][1,4]oxazin-3-one; formic acid]
< 97.7		N[C@H]1c2cccc(Cl)c2C[C@@H]1CNCC[C@@H]1CN(c2cnc3c(n2)NC(=O)CO3)C(=O)O1 [Example 403, 6-[(5R)-5-[2-[[(1R,2R)-1-amino-4-chloro-2,3-dihydro-1H-inden-2-yl]methylamino]ethyl]-2-oxo-1,3-oxazolidin-3-yl]-4H-pyrazino[2,3-b][1,4]oxazin-3-one]
< 97.7		NC1c2cccc(Cl)c2CC1CN[C@H]1C[C@@]2(CN(c3ccc4c(n3)NC(=O)CO4)C(=O)O2)C1 (mixture of isomers) [Example 211, 2,4-trans-6-[6-oxo-2-[[rac-1,2-trans-1-amino-4-chloro-2,3-dihydro-1H-inden-2-yl]methylamino]-5-oxa-7-azaspiro[3.4]octan-7-yl]-4H-pyrido[3,2-b][1,4]oxazin-3-one]
< 97.7		N#Cc1cc(OCC2(N)CC2)cc2c1CC(CNCCC1CN(c3cnc4c(n3)NC(=O)CO4)C(=O)O1)C2 (stereo not shown) [Example 186, 6-((1-aminocyclopropyl)methoxy)-2-(((2-(2-oxo-3-(3-oxo-3,4-dihydro-2H-pyrazino[2,3-b][1,4]oxazin-6-yl)oxazolidin-5-yl)ethyl)amino)methyl)-2,3-dihydro-1H-indene-4-carbonitrile]
